The source of these data is PubChem BioAssay (NCI).

Some test systems named below: MALME-3M melanoma; SW-620 colon; SN12C renal; NCI/ADR-RES ovarian; SR leukemia; UO-31 renal; HOP-92 NSCLC; BT-549 breast; U251 CNS; UACC-62 melanoma.
Common to all, as to experiment: DTP human tumour cell line panel, 48 h

Values joined by “and” are separate entries in the source; they are usually repeats but may differ in a detail not shown here. Equal values may be shown once.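 Compound exposure: 48 hours, 5 concentrations, 96-well plates. GI50: concentration for 50% inhibition of growth. TGI is the concentration that stops growth completely.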 *1 amine or outer side, *2 acyl side, *3 side chain or, on linkers, in order; H or OH if unused. Where a SMILES comes first, the peptide text is derived from it. Bridges are numbered along the chain shown (N, C = ends). [ ]: non-standard residue; d: D form. The star is where a group is joined. Phe(3-Me) = Cc1cccc(C[C@H](N)C(=O)O)c1; NH(4-Cl-2-F-phenyl) = Fc1cc(Cl)ccc1N*; Pro(4R-Me) = C[C@H]1CN[C@H](C(=O)O)C1; Propanoyl(3-NMe2) = CN(C)CCC(=O)*; Hyp = O=C(O)[C@@H]1C[C@@H](O)CN1; aThr = C[C@H](O)[C@H](N)C(=O)O; Pip = O=C(O)[C@@H]1CCCCN1; CO = O=C([*:1])[*:2]

As a reminder, the GI50 is the concentration that inhibits growth by half. The TGI is the concentration giving total growth inhibition. The low end stands for greater sensitivity of the cells, the high end for lower sensitivity of the cells. Regarding `O=C1C(Cl)=C(Nc2cccc(O)c2)C(=O)N1c1cccc(Cl)c1Cl`, the GI50 in the experiment on MALME-3M melanoma was 11.7 µM; in the experiment with SW-620 colon, 15.2 µM; in the experiment on SN12C renal, 14.5 µM; in the experiment on NCI/ADR-RES ovarian, 18.9 µM; with SR leukemia it was 570 nM; with UO-31 renal, 23300 nM. In addition, the GI50 in the experiment with HOP-92 NSCLC was 262 nM; with BT-549 breast it was 24.5 µM; in the experiment on U251 CNS, 12.4 µM; with UACC-62 melanoma, 14.6 µM. In addition, the TGI in the experiment on MALME-3M melanoma is 53.9 µM; with SW-620 colon it was 34.5 µM; with SN12C renal it was 28.2 µM; in the experiment with NCI/ADR-RES ovarian, 46 µM; with SR leukemia, 10.3 µM; in the experiment with UO-31 renal, above 100 µM. For the same molecule, the TGI in the experiment on HOP-92 NSCLC worked out at 5.91 µM; in the experiment on BT-549 breast, 61.2 µM; in the experiment on U251 CNS, 30.8 µM; in the experiment with UACC-62 melanoma, 34 µM.
As for `CCCCCCCCCC(CCCC(O)CC(=O)O)OC1OC(COC2OC(C)C(O)C(O)C2O)C(O)C(O)C1OC1OC(CO)C(O)C(O)C1OC1OC(C)C(O)C(O)C1O` (configuration not stated), the GI50 in the experiment on MALME-3M melanoma is above 40 µM; in the experiment on SW-620 colon it was above 40 µM; with SN12C renal, above 40 µM; with NCI/ADR-RES ovarian, above 40 µM; in the experiment with SR leukemia, above 40000 nM; with UO-31 renal, above 40000 nM. Besides, the GI50 is above 40000 nM in the experiment on HOP-92 NSCLC, above 40 µM in the experiment with BT-549 breast, above 40 µM in the experiment with U251 CNS and above 40 µM with UACC-62 melanoma. Further, the TGI in the experiment on MALME-3M melanoma, with SW-620 colon, with SN12C renal, with NCI/ADR-RES ovarian, in the experiment with SR leukemia and in the experiment with UO-31 renal was above 40 µM throughout. For the same molecule, the TGI with HOP-92 NSCLC, with BT-549 breast, with U251 CNS and in the experiment with UACC-62 melanoma was above 40 µM each time.
Take `COc1ccc(Cn2c(Br)c3c(c2-c2cc(OC)c(OC)c(OC)c2)CCc2sc(NC(C)=O)nc2-3)cc1`: the GI50 was 12.7 µM in the experiment on MALME-3M melanoma; 3.63 µM in the experiment on SW-620 colon; 4.99 µM in the experiment on SN12C renal; 4.97 µM with NCI/ADR-RES ovarian; 2440 nM with SR leukemia; 3690 nM with UO-31 renal. Moreover, the GI50 in the experiment with HOP-92 NSCLC was 1880 nM; with BT-549 breast, 3.18 µM; in the experiment on U251 CNS, 3.69 µM; with UACC-62 melanoma, 4.29 µM. Besides, the TGI was 83.4 µM in the experiment on MALME-3M melanoma; above 100 µM in the experiment with SW-620 colon; above 100 µM in the experiment with SN12C renal; above 100 µM with NCI/ADR-RES ovarian; above 100 µM in the experiment with SR leukemia; 35.1 µM with UO-31 renal. Also, the concentration for total growth inhibition (TGI) was 9.64 µM in the experiment on HOP-92 NSCLC, 19.4 µM in the experiment with BT-549 breast, above 100 µM in the experiment with U251 CNS and above 100 µM in the experiment on UACC-62 melanoma.
Consider `CNC1C(OC2C(OC3C(O)C(O)C(O)C(O)C3O)OC(C)C2(O)CO)OC(CO)C(O)C1O` (configuration not stated) (tested in a mixture with another compound), for which the TGI in the experiment on MALME-3M melanoma, in the experiment on SW-620 colon, in the experiment with SN12C renal, in the experiment on NCI/ADR-RES ovarian, with SR leukemia and in the experiment with UO-31 renal was above 100 µM in each case. For the same molecule, the TGI in the experiment with HOP-92 NSCLC, in the experiment with BT-549 breast, in the experiment with U251 CNS and in the experiment on UACC-62 melanoma was above 100 µM throughout.
In the case of `O=C1c2ccccc2C(=O)c2c1ccc1c2OCO1`, the TGI with MALME-3M melanoma, in the experiment with SW-620 colon, with SN12C renal, in the experiment with NCI/ADR-RES ovarian, in the experiment on SR leukemia and with UO-31 renal was above 100 µM each time. Also, the TGI in the experiment on HOP-92 NSCLC, in the experiment with BT-549 breast, in the experiment on U251 CNS and in the experiment with UACC-62 melanoma was above 100 µM in each case.
Regarding `Cc1cccc(C[C@H](NC(=O)Nc2ccc(Cl)cc2F)C(=O)N[C@@H]2C(=O)N3C[C@H](OC(=O)CCN(C)C)C[C@H]3C(=O)N3CCCC[C@H]3C(=O)N[C@@H](C)C(=O)N3C[C@H](C)C[C@H]3C(=O)O[C@H]2C)c1` ({NH(4-Cl-2-F-phenyl)-CO}-[Phe(3-Me)][aThr][Hyp](Propanoyl(3-NMe2))[Pip]A[Pro(4R-Me)]; ester 2-C), the GI50 in the experiment with MALME-3M melanoma was 0.567 µM; with SW-620 colon, 0.6 µM; with SN12C renal it was 0.371 µM; in the experiment with NCI/ADR-RES ovarian, 10.8 µM; with SR leukemia, 624 nM; in the experiment on UO-31 renal, 2170 nM. The GI50 in the experiment on HOP-92 NSCLC is 572 nM; in the experiment on BT-549 breast, 0.526 µM; in the experiment on U251 CNS it was 0.441 µM; in the experiment with UACC-62 melanoma, 0.569 µM. The TGI amounted to 1.97 µM in the experiment on MALME-3M melanoma; 2.94 µM with SW-620 colon; 2.18 µM with SN12C renal; 28.5 µM in the experiment with NCI/ADR-RES ovarian; 3.94 µM in the experiment on SR leukemia; 7.13 µM in the experiment with UO-31 renal. For the same molecule, the TGI with HOP-92 NSCLC was found to be 2.66 µM; in the experiment on BT-549 breast, 2.48 µM; in the experiment with U251 CNS it was 7.27 µM; with UACC-62 melanoma it was 2.06 µM.
Regarding `COc1ccc(/C=C/C(=O)c2ccc(Nc3ccnc4cc(Cl)ccc34)cc2)cc1`, the GI50 is above 100 µM in the experiment on MALME-3M melanoma; above 100 µM in the experiment with SW-620 colon; above 100 µM with SN12C renal; above 100 µM with NCI/ADR-RES ovarian; 2240 nM with SR leukemia; above 100000 nM with UO-31 renal. The GI50 in the experiment on HOP-92 NSCLC was above 100000 nM; with BT-549 breast, above 100 µM; in the experiment on U251 CNS, above 100 µM; with UACC-62 melanoma, 62.6 µM. In addition, the TGI in the experiment with MALME-3M melanoma was above 100 µM; with SW-620 colon it was above 100 µM; in the experiment with SN12C renal, above 100 µM; with NCI/ADR-RES ovarian it was above 100 µM; with SR leukemia, 10.1 µM; in the experiment with UO-31 renal, above 100 µM. Besides, the TGI with HOP-92 NSCLC, in the experiment with BT-549 breast, in the experiment with U251 CNS and with UACC-62 melanoma was above 100 µM in each case.
Turning to `C=C1N(C)c2ccc(Cl)cc2C1(C)C`, the GI50 is 3.32 µM in the experiment with MALME-3M melanoma; 5.8 µM in the experiment on SW-620 colon; 5.38 µM with SN12C renal; 34.8 µM with NCI/ADR-RES ovarian; 2740 nM in the experiment on SR leukemia; 27900 nM with UO-31 renal. Moreover, the GI50 with HOP-92 NSCLC is 3720 nM; with BT-549 breast it was 3.35 µM; with U251 CNS, 3.68 µM; with UACC-62 melanoma, 11.7 µM. Further, the TGI in the experiment with MALME-3M melanoma is 20.5 µM; with SW-620 colon it was above 100 µM; with SN12C renal, 38.1 µM; with NCI/ADR-RES ovarian it was above 100 µM; in the experiment on SR leukemia, 8.94 µM; in the experiment with UO-31 renal, above 100 µM. The TGI with HOP-92 NSCLC is 22.9 µM; in the experiment with BT-549 breast, 22.3 µM; in the experiment on U251 CNS, 57.2 µM; with UACC-62 melanoma it was 29.5 µM.
Consider `Nc1nc2c(c3cnccc13)C(c1cccc(Cl)c1)Cc1cnccc1-2` (configuration not stated), for which the GI50 in the experiment with MALME-3M melanoma is 0.419 µM; in the experiment with SW-620 colon it was 0.455 µM; in the experiment on SN12C renal, 0.668 µM; with NCI/ADR-RES ovarian, 0.237 µM; in the experiment with SR leukemia it was 293 nM; in the experiment with UO-31 renal it was 841 nM. Besides, the GI50 was 811 nM in the experiment with HOP-92 NSCLC, 0.482 µM in the experiment with BT-549 breast, 0.336 µM in the experiment on U251 CNS and 0.371 µM in the experiment with UACC-62 melanoma. Also, the TGI was 17.8 µM in the experiment with MALME-3M melanoma; 17.6 µM with SW-620 colon; 14.4 µM with SN12C renal; 0.663 µM in the experiment on NCI/ADR-RES ovarian; above 100 µM in the experiment on SR leukemia; 14.8 µM with UO-31 renal. The TGI is 18.2 µM in the experiment with HOP-92 NSCLC, 4.21 µM in the experiment on BT-549 breast, 1.08 µM in the experiment with U251 CNS and 12 µM in the experiment on UACC-62 melanoma.
Take `NC[C@@](O)(c1ccc(Cl)cc1)c1ccc(-c2cn[nH]c2)cc1`: the GI50 in the experiment with MALME-3M melanoma is 1.57 µM; with SW-620 colon, 2.13 µM and 1.56 µM; with SN12C renal it was 2.39 µM and 1.88 µM; with NCI/ADR-RES ovarian, 3.48 µM and 2.2 µM; in the experiment with SR leukemia, 1160 nM; with UO-31 renal, 583 nM and 747 nM. Further, the GI50 with HOP-92 NSCLC was 44.5 nM and 37.6 nM; in the experiment with BT-549 breast, 0.892 µM and 1.13 µM; in the experiment with U251 CNS it was 1.49 µM; in the experiment with UACC-62 melanoma it was 3.2 µM. Moreover, the TGI was 3.08 µM in the experiment with MALME-3M melanoma; above 100 µM in the experiment on SN12C renal; 4.64 µM in the experiment on SR leukemia; 1.85 µM and 1.45 µM in the experiment with HOP-92 NSCLC; 3.91 µM and 7.63 µM in the experiment on BT-549 breast; 3 µM in the experiment with U251 CNS. The TGI with UACC-62 melanoma was above 10 µM.
On to `COc1cc(OC)cc(-c2cncn2-c2ccc(-c3nc4cc(OC)c(OC)c(OC)c4s3)cc2)c1`, for which the GI50 in the experiment with MALME-3M melanoma is 9.59 µM; with SW-620 colon it was 13.7 µM; with SN12C renal it was 31.9 µM; in the experiment on NCI/ADR-RES ovarian it was 11 µM; in the experiment with SR leukemia, 7140 nM; in the experiment with UO-31 renal it was 1940 nM. Moreover, the GI50 is above 100000 nM in the experiment on HOP-92 NSCLC, 6.71 µM in the experiment with BT-549 breast, 5.44 µM in the experiment on U251 CNS and 13.8 µM with UACC-62 melanoma. In addition, the TGI is 75.1 µM in the experiment on MALME-3M melanoma; above 100 µM with SW-620 colon; above 100 µM in the experiment with SN12C renal; above 100 µM in the experiment with NCI/ADR-RES ovarian; above 100 µM in the experiment with SR leukemia; 58.9 µM in the experiment with UO-31 renal. Also, the TGI in the experiment with HOP-92 NSCLC, with BT-549 breast, in the experiment with U251 CNS and with UACC-62 melanoma was above 100 µM in each case.
